Columns and labels:
CD4+CD25− T cells = test: Treg induction from anti-CD3-activated CD4+CD25- T cells in vitro (flow cytometry, TGFbeta ELISA); type: cell-based
Protocol: Purified CD4+CD25− T cells were stimulated with plate-bound anti-CD3 antibody for 48 hr at 37 degrees C. in the presence of 10 microM TSP-peptide or control peptide. Activated T cells were washed and subjected to 2 cycles of amplification, 48 hr each, in the presence of T cell growth factor IL-2 (50 U/ml). Proliferated T cells were then stained using fluorochrome-conjugated antibodies to label surface CD4 and CD25 and intracellular Foxp3. Stained cells were analyzed using a flow cytometer. Culture supernatants collected from cells after initial 48 hr culture were tested for the content of TGFbeta using an ELISA.

[1] = test system: CD4+ T cells derived from the spleen and lymph node; test: Treg and inflammatory effector cells in ova/CFA-immunized mice (flow cytometry); type: in vivo; conditions: 10 μg on day 1, 3 and 5 post-immunization, analysed day 7; compared to control peptide
Protocol: To determine if such an expansion of Treg cells by TSP-peptide is possible in vivo, and whether it can reduce the typical IL-17 or IFNγ-producing inflammatory effectors, mice were immunized with an ovalbumin (ova) antigen in Complete Freund's Adjuvant (CFA). This is a commonly used experimental approach to generate antigen-specific inflammatory effectors. These ova-immunized mice were treated with either control or TSP-peptide (10 μg; SEQ ID NO:1) on day 1, 3 and 5 post-immunization. On day 7 post-immunization, the CD4+ T cells derived from the spleen and lymph node of these mice were analyzed by flow cytometry to determine the numbers of Foxp3+ Treg cells and the expression patterns of the inflammatory cytokines, IL-17 and […].
Lymph nodes were harvested from immunized mice treated with either control or TSP-peptide 7 days post-immunization. Lymph node cells were cultured in the presence of PMA (10 ng/ml), ionomycin (200 ng/ml) and Brefeldin A for 20 hr at 37 degrees C. Cell surface CD4 and CD25 and intracellular Foxp3, IFNgamma and IL-17 were detected using fluorochrome-conjugated antibodies followed by flow cytometric analysis.

[2] = test system: experimental mouse model of autoimmune uveitis (IRBP-immunized mice); test: Experimental autoimmune uveitis, i.p. peptide treatment, clinical disease score; type: in vivo, C57BL/6 mice; conditions: i.p. 10 microgram on day 1, 3 and 5 post-immunization; scored for 26 days; compared to control peptide
Protocol: (§1) The expansion of Treg cells and the reduction of inflammatory effector cells was evaluated in an experimental mouse model of autoimmune uveitis to determine if the TSP-1 peptide reduced disease severity. […] The inflammatory response in the retina is monitored and scored regularly on the basis of severity by examining the fundus.
C57BL/6 mice were immunized subcutaneously, on day 0, with 200 microgram IRBP in complete Freund's adjuvant per mouse followed by i.p. injection of Pertussis toxin (0.1 microgram). On day 1, 3 and 5 post-immunization mice received i.p. injection of 10 microgram of either control or TSP-peptide. Clinical disease score was recorded for the 26 days post-immunization.

[3] = test system: experimental mouse model of autoimmune uveitis (IRBP-immunized mice); test: Experimental autoimmune uveitis, topical peptide treatment, clinical disease score and lymph node Th17/Treg transcription factor message; type: in vivo, C57BL/6 mice; conditions: for disease severity / ocular inflammation (clinical disease score): topical 10 microgram per mouse (5 microgram per eye) once per day, day 1 to 7, scored for 26 days, compared to control peptide
Protocol: as §1
For topical administration, 10 microgram per mouse (5 microgram per eye) was administered for the duration of 7 days. TSP peptide was administered topically once per day for 7 days post-immunization with IRBP-CFA. 1 microgram per microliter solution was used for the eye drops, i.e., 0.1% solution used as 5 microliter per eye resulting in total 10 microliter (10 microgram) per mouse. A liquid formulation was used in topical application as well as when peptide was administered intraperitoneally.
C57BL/6 mice were immunized subcutaneously, on day 0, with 200 microgram IRBP in complete Freund's adjuvant per mouse followed by i.p. injection of Pertussis toxin (0.1 microgram). From day 1 to day 7 pos-immunization total 10 microgram of control or TSP-peptide was administered topically (5 micrograms/5 microliters per eye). Clinical disease score was recorded for the 26 days post-immunization.

[4] = topical treatment, relative to control peptide

In the case of “KRFYVVMWKK (listed as Homo sapiens) [4N1K, 4N1 flanked with 2 Lys residues]”, the “number of cells expressing Foxp3 and CD25” value (CD4+CD25− T cells; 10 microM peptide, 48 hr anti-CD3 activation, then 2 cycles IL-2, compared to control peptide (4NGG)) is reported as “significantly increased”, the “synthesis of immunosuppressive cytokine TGF-β1” value (CD4+CD25− T cells; 10 microM peptide, culture supernatant after initial 48 hr, ELISA) is reported as “increased” and the “induction of Treg cells in vitro” value (CD4+CD25− T cells; in vitro) is reported as “effectively induces Treg cells”. For the same sequence, the “numbers of Foxp3-expressing Treg cells” value [1] was “increased numbers”, the “numbers of IFN-γ-expressing CD4 effectors” value [1] was “reduced numbers” and the “numbers of IL-17-expressing CD4 effectors” value [1] was “reduced numbers”. For the same sequence, the “disease severity (clinical disease score)” value [2] was “significantly reduced”, the “disease severity / ocular inflammation (clinical disease score)” value [3] was “significantly reduced” and the “disease severity / ocular inflammation (clinical disease score)” value ([3]; listed as TSP-1 peptide) was “reduction of ocular inflammation”. The “anti-inflammatory Treg cells in the lymph nodes (transcriptional factor message)” value [3, 4] was “enhancement” and the “pro-inflammatory Th17 cells in the lymph nodes (transcriptional factor message)” value [3, 4] was “decline”.

From patent publication US20140127269A1, “Anti-Inflammatory Peptide Derived From Thrombospondin-1 and Uses Thereof” (THE SCHEPENS EYE RESEARCH INSTITUTE, INC., priority 2012, published 2014)
